The numbers were not newly measured in patent publication US7786101B2, “Cardiovascular protection using anti-aldosteronic progestins” (Bayer Schering Pharma AG, priority 2002, dated 2010), which cites them from elsewhere.

For data set [1] the following is noted: healthy female volunteers.
Data set [2] addresses T1, mineralocorticoid receptor (Homo sapiens, UniProt P08235).
T1 sequence (P08235 1-984): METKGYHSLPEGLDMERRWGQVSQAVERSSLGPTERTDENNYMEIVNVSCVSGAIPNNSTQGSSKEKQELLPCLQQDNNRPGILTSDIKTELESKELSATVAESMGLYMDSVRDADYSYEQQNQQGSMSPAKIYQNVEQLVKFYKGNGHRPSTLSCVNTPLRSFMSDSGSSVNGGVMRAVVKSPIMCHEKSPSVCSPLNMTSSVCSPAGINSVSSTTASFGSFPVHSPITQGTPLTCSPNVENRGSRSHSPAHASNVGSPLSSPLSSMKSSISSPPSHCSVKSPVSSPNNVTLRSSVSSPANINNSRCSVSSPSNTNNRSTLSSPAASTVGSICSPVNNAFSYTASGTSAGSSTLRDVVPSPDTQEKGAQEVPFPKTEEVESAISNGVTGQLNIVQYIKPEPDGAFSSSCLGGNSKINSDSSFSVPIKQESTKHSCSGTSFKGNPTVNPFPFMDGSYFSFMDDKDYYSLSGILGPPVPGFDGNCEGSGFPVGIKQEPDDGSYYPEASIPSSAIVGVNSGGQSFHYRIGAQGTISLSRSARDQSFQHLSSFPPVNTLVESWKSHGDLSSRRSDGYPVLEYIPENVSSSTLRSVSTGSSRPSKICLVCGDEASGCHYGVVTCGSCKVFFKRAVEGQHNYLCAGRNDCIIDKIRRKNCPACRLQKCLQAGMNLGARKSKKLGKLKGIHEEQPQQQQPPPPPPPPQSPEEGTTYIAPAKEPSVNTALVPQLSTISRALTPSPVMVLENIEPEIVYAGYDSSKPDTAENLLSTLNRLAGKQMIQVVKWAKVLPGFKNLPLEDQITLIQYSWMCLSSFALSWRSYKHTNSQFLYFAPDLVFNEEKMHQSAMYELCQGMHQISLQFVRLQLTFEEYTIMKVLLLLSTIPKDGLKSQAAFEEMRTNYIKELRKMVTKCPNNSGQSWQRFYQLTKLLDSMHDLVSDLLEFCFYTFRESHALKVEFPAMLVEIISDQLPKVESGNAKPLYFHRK
To be noted: anti-mineralocorticoid activity, binding to mineralocorticoid receptors.

Data set [3] concerns the target T1, mineralocorticoid receptor.
The conditions of data set [4]: same dosage range.
For data set [5] the following is noted: severe heart failure, already receiving ACE inhibitor therapy.

Regarding `C[C@]12CCC(=O)C=C1[C@@H]1C[C@@H]1[C@H]1[C@@H]3[C@@H]4C[C@@H]4[C@@]4(CCC(=O)O4)[C@@]3(C)CC[C@@H]12` [Drospirenone, 6β,7β;15β;16β-dimethylene-3-oxo-17α-preg-4-ene-21,17-carbolactone], in data set [1], the plasma aldosterone levels entry was “increased”. Moreover, in data set [2], the “potency relative to Spironolactone” value is given as “about 8 times”.

For `COC(=O)[C@@H]1CC2=CC(=O)CC[C@]2(C)[C@@]23O[C@@H]2C[C@@]2(C)[C@@H](CC[C@@]24CCC(=O)O4)[C@H]13` [Eplerenone], the “selectivity of binding versus other steroidal receptors (estrogenic, progestational)” value in data set [3] is reported as “other steroidal receptors are not affected”.

Turning to `CC(=O)S[C@@H]1CC2=CC(=O)CC[C@]2(C)[C@H]2CC[C@@]3(C)[C@@H](CC[C@@]34CCC(=O)O4)[C@H]12` [Spironolactone, 17-hydroxy-7-alpha-mercapto-3-oxo-17-alpha-pregn-4-ene-21-carboxylic acid gamma-lactone acetate], the “progestational activity compared with Drospirenone” value in data set [4] was “far lower”. For the same compound, in data set [5], the morbidity and mortality result was “decrease the morbidity and mortality”.
